System: collection of strains of P. aeruginosa
Assay: Agar well diffusion test (several strains)
Assay type: cell-based, Pseudomonas aeruginosa
Conditions: KW799/wt, PAO1, Pa4, and Pa6; Table 1
Experimental: Conjugates 10 and 11 were first evaluated for their antibacterial ability against a collection of strains of P. aeruginosa using the agar well diffusion test. The influence of iron concentration on antibacterial activity was probed as well by conducting assays in iron-rich and iron-deficient media.
All liquids and media were sterilized by autoclaving (121° C., 15 min) before use. All aqueous solutions and media were prepared using distilled, deionized, and filtered water (Millipore Milli-Q Advantage A10 Water Purification System). Luria broth (LB) was purchased from VWR. Mueller-Hinton No. 2 broth (MHII broth; cation adjusted) was purchased from Sigma-Aldrich (St. Louis, Mo.). Iron-deficient (—Fe) MHII broth was prepared by adding 0.8 mL of a 1 mg/mL sterile aq. solution of 2,2′-bipyridine to 49.2 mL of MHII broth. Iron-rich (+Fe) MHII broth was prepared by adding 0.8 mL of a 1 mg/mL sterile aq. solution of FeCl3 to 49.2 mL of MHII broth. Mueller-Hinton No. 2 agar (MHII agar; HiMedia Laboratories) was purchased from VWR. Iron-deficient (−Fe) MHII agar was prepared by adding 0.5 mL of a 1 mg/mL sterile aq. solution of 2,2′-bipyridine to 34 mL of melted MHII agar with gentle mixing. Iron-rich (+Fe) MHII agar was prepared by adding 0.5 mL of a 1 mg/mL sterile aq. solution of FeCl3 to 34 mL of melted MHII agar with gentle mixing. See also Wencewicz, T. A. Dissertation, University of Notre Dame, Notre Dame, Ind., 2011, for relevant techniques.
Antibacterial Susceptibility Testing by the Agar Diffusion Assay.
Antibacterial activity of the compounds was determined by a modified Kirby-Bauer agar diffusion assay. Overnight cultures of test organisms were grown in LB broth for 18-24 h and standard suspensions of […] were prepared in saline solution (0.9% NaCl) according to a 0.5 BaSO4 McFarland Standard. This standardized suspension (0.1 mL) was added to 34 mL of sterile, melted agar (−Fe or +Fe) tempered to 47-50° C. After gentle mixing, the inoculated agar media was poured into a sterile plastic petri dish (145 mm×20 mm) and allowed to solidify near a flame with the lid ajar for about 30 min. Wells of 9.0 mm diameter were cut from the petri dish agar and filled with exactly 50 μL of the test sample solution. The petri dish was incubated at 37° C. for 18-24 h and the inhibition zone diameters were measured (mm) with an electronic caliper after 24 h.

Structure (SMILES)	activity against wild type strains of P. aeruginosa (agar diffusion, in words)
CC1(C)S[C@@H]2[C@H](NC(=O)[C@H](N)c3ccc(O)cc3)C(=O)N2[C@H]1C(=O)O [Amoxicillin, reference compound]	inactive or only weakly active
CC1(C)S[C@@H]2[C@H](NC(=O)[C@H](N)c3ccccc3)C(=O)N2[C@H]1C(=O)O [Ampicillin, reference compound]	inactive or only weakly active

From patent publication US9302012B2, “Anti-bacterial siderophore-aminopenicillin conjugates” (University of Notre Dame Du Lac, priority 2012, dated 2016)
